Experimental data taken from ChEMBL document CHEMBL1147043, “Comparative metabolism of radiolabeled muraglitazar in animals and humans by quantitative and qualitative metabolite profiling” (Drug Metab Dispos, 2007).

Legend:
[1] = Bile excretion of compound in bile duct-cannulated orally dosed cynomolgus monkey within 48 hrs; format: ADME, organism-based, Macaca fascicularis; conditions: po, read-out: Activity
[2] = molecular target: T1, Peroxisome proliferator-activated receptor alpha (Homo sapiens, UniProt Q07869); assay: (§1) Agonist activity at PPAR alpha in human HEK cells by transactivation assay; format: functional, cell-based, HEK293
T1 sequence (Q07869 whole entry): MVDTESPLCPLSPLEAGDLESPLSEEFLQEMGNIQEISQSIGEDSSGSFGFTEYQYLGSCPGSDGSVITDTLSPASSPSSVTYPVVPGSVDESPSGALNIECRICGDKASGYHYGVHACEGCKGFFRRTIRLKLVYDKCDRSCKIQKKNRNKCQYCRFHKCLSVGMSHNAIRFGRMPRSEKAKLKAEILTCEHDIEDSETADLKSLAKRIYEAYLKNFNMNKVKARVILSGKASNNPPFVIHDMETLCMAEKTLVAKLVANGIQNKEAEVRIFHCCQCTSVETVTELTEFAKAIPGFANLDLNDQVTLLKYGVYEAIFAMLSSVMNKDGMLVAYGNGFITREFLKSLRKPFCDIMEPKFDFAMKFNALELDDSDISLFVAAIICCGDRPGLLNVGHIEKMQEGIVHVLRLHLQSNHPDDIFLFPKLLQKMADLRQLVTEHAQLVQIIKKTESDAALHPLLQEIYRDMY

[3] = molecular target: T2, Peroxisome proliferator-activated receptor gamma (Homo sapiens, UniProt P37231); assay: Binding affinity at PPAR gamma receptor
T2 sequence (P37231 whole entry): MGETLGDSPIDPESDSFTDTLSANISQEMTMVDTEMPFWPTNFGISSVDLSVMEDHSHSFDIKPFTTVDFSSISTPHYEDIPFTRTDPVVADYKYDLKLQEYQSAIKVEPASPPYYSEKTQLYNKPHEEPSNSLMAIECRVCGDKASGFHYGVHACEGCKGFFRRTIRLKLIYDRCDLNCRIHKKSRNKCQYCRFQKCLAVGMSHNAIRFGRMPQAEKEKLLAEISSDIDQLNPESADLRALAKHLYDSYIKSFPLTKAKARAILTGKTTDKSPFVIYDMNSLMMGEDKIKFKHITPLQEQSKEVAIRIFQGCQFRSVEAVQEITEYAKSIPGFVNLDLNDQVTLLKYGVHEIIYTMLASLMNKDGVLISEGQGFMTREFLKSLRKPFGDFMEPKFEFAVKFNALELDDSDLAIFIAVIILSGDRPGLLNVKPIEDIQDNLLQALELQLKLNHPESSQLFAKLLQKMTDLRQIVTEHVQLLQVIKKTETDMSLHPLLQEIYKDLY

[4] = molecular target: T1, Peroxisome proliferator-activated receptor alpha; assay: Binding affinity at PPAR alpha receptor
[5] = molecular target: T3, Peroxisome proliferator-activated receptor alpha (Homo sapiens) (UniProt Q07869); assay: as §1; format: functional, cell-based; conditions: HEK293
T3 sequence (whole entry): T1 sequence (Q07869 whole entry)

[6] = molecular target: T3, Peroxisome proliferator-activated receptor alpha (Homo sapiens); assay: Intrinsic activity at PPAR alpha in human HEK cells at 1 uM by transactivation assay; format: cell-based; conditions: HEK293
[7] = Cmax in Sprague-Dawley rat at 10 mg/kg, po after 96 hrs; format: ADME, organism-based; parameters: dose 10 mg/kg, route oral; conditions: in vivo
[8] = Tmax in Sprague-Dawley rat at 10 mg/kg, po after 96 hrs; format: ADME, organism-based; parameters: dose 10 mg/kg, route oral; conditions: in vivo
[9] = AUC (0 to T) in Sprague-Dawley rat at 10 mg/kg, po after 96 hrs; format: ADME, organism-based; parameters: time < 96 hr, dose 10 mg/kg, route oral; conditions: plasma
[10] = Half life in Sprague-Dawley rat at 10 mg/kg, po after 96 hrs; format: ADME, organism-based; parameters: dose 10 mg/kg, route oral; conditions: in vivo
[11] = Cmax in Beagle dog at 2 mg/kg, po after 12 hrs; format: ADME, organism-based, Canis lupus familiaris; parameters: dose 2 mg/kg, route oral; conditions: in vivo
[12] = Tmax in Beagle dog at 2 mg/kg, po after 12 hrs; format: ADME, organism-based, Canis lupus familiaris; parameters: dose 2 mg/kg, route oral; conditions: in vivo
[13] = AUC (0 to T) in Beagle dog at 2 mg/kg, po after 12 hrs; format: ADME, organism-based, Canis lupus familiaris; parameters: time < 12 hr, dose 2 mg/kg, route oral; conditions: plasma
[14] = Half life in Beagle dog at 2 mg/kg, po after 12 hrs; format: ADME, organism-based, Canis lupus familiaris; parameters: dose 2 mg/kg, route oral; conditions: in vivo
[15] = Cmax in cynomolgus monkey at 1.9 mg/kg, po after 144 hrs; format: ADME, organism-based, Macaca fascicularis; parameters: dose 1.9 mg/kg, route oral; conditions: in vivo
[16] = Tmax in cynomolgus monkey at 1.9 mg/kg, po after 144 hrs; format: ADME, organism-based, Macaca fascicularis; parameters: dose 1.9 mg/kg, route oral; conditions: in vivo
[17] = AUC (0 to T) in cynomolgus monkey at 1.9 mg/kg, po after 144 hrs; format: ADME, organism-based, Macaca fascicularis; parameters: time < 144 hr, dose 1.9 mg/kg, route oral; conditions: plasma
[18] = Half life in cynomolgus monkey at 1.9 mg/kg, po after 144 hrs; format: ADME, organism-based, Macaca fascicularis; parameters: dose 1.9 mg/kg, route oral; conditions: in vivo
[19] = Cmax in human at 10 mg, po after 192 hrs; format: ADME, organism-based; parameters: dose 10 mg, route oral; conditions: in vivo
[20] = Tmax in human at 10 mg, po after 192 hrs; format: ADME, organism-based; conditions: in vivo
[21] = AUC (0 to T) in human at 10 mg, po after 192 hrs; format: ADME, organism-based; parameters: dose 10 mg, time < 192 hr, route oral; conditions: plasma
[22] = Half life in human at 10 mg, po after 192 hrs; format: ADME, organism-based; conditions: in vivo
[23] = Bile excretion of compound in bile duct-cannulated orally dosed Sprague-Dawley rat within 24 hrs; format: ADME, organism-based; conditions: po, read-out: Activity

Row | Structure (SMILES) | dose excreted at 48 h [1] | EC50 [2] | IC50 [3] | IC50 [4] | also measured
1 | O=C(O)CN(Cc1ccc(O)cc1)C(=O)Oc1ccc(O)cc1 | < 5% | – | – | – | –
2 | Cc1oc(-c2ccccc2)nc1CC(O)Oc1ccc(CN(CC(=O)O)C(=O)Oc2ccc(O)cc2)cc1 (configuration not stated) | < 5% | – | – | – | –
3 | COc1ccc(OC(=O)N(CC(=O)O)Cc2ccc(OCCC(=O)N(C(C)=O)C(=O)c3ccccc3)cc2)cc1 | < 5% | > 25 µM | > 15 µM | > 15 µM | –
4 | O=C(O)CN(Cc1ccc(OCCc2nc(-c3ccccc3)oc2CO)cc1)C(=O)Oc1ccc(O)cc1 | < 5% | 18.1 µM | > 15 µM | > 15 µM | %max [5]: 69%; Intrinsic activity [6]: 2%
5 | Cc1oc(-c2ccccc2)nc1C(O)COc1ccc(CN(CC(=O)O)C(=O)Oc2ccc(O)cc2)cc1 (configuration not stated) | < 5% | – | – | – | –
6 | COc1ccc(OC(=O)N(CC(=O)O)Cc2ccc(OCCc3nc(-c4ccccc4)oc3C)cc2)cc1.Cl [MURAGLITAZAR CHLORIDE] | – | 0.035 µM | – | 0.188 µM | Cmax [7]: 12800 ng/mL; Tmax [8]: 0.5 h; AUC(0-t) at 96 h [9]: 101000 ng·h/mL; half-life [10]: 10.3 h; Cmax [11]: 800 ng/mL; Tmax [12]: 0.5 h; AUC(0-t) at 12 h [13]: 1300 ng·h/mL; half-life [14]: 5.7 h; Cmax [15]: 6900 ng/mL; Tmax [16]: 1 h; AUC(0-t) at 144 h [17]: 41000 ng·h/mL; half-life [18]: 18 h; Cmax [19]: 1800 ng/mL; Tmax [20]: 1 h; AUC(0-t) at 192 h [21]: 12000 ng·h/mL; half-life [22]: 35.1 h
7 | COc1ccc(OC(=O)N(CC(=O)O)Cc2ccc(OCC(O)c3nc(-c4ccccc4)oc3CO)cc2)cc1 (configuration not stated) | < 5% | – | – | – | –
8 | Cc1oc(-c2ccccc2)nc1CCOc1ccc(CN(CC(=O)O)C(=O)Oc2ccc(O)cc2)cc1 | < 5% | 6.89 µM | > 15 µM | 3.74 µM | %max [5]: 78%; Intrinsic activity [6]: 6%; dose excreted at 24 h [23]: 11%
9 | Cc1oc(-c2ccc(O)cc2)nc1CCOc1ccc(CN(CC(=O)O)C(=O)Oc2ccc(O)cc2)cc1 | < 5% | – | – | – | –
10 | COc1ccc(OC(=O)N(CC(=O)O)Cc2ccc(OCCc3nc(-c4ccccc4)oc3CO)cc2)cc1 | < 5% | 1.94 µM | > 15 µM | 3.09 µM | %max [5]: 88%; Intrinsic activity [6]: 24%
11 | COc1ccc(OC(=O)N(CC(=O)O)Cc2ccc(OC(O)Cc3nc(-c4ccccc4)oc3CO)cc2)cc1 (configuration not stated) | < 5% | – | – | – | –
12 | COc1ccc(OC(=O)N(CC(=O)O)Cc2ccc(OCCc3nc(-c4ccccc4)oc3C)cc2)cc1 | – | – | – | – | Intrinsic activity [6]: 120%
13 | COc1ccc(OC(=O)N(CC(=O)O)Cc2ccc(OCC(O)c3nc(-c4ccccc4)oc3C)cc2)cc1 (configuration not stated) | < 5% | – | – | – | –
14 | COc1ccc(OC(=O)N(CC(=O)O)Cc2ccc(O)cc2)cc1 | < 5% | > 25 µM | > 15 µM | > 15 µM | –
15 | COc1ccc(OC(=O)N(CC(=O)O)Cc2ccc(OC(O)Cc3nc(-c4ccc(O)cc4)oc3C)cc2)cc1 (configuration not stated) | < 5% | – | – | – | –
16 | Cc1oc(-c2ccc(O[C@@H]3O[C@H](C(=O)O)[C@@H](O)[C@H](O)[C@H]3O)cc2)nc1CCOc1ccc(CN(CC(=O)O)C(=O)Oc2ccc(O)cc2)cc1 | < 5% | – | – | – | –
17 | COc1ccc(OC(=O)N(CC(=O)O)Cc2ccc(OCCC(=O)NC(=O)c3ccccc3)cc2)cc1 | < 5% | > 25 µM | > 15 µM | > 15 µM | –
18 | COc1ccc(OC(=O)N(CC(=O)O)Cc2ccc(OCCc3nc(-c4ccccc4)oc3C(=O)O)cc2)cc1 | < 5% | – | – | – | –
19 | COc1ccc(OC(=O)N(CC(=O)O)Cc2ccc(OCCc3nc(-c4ccc(O)cc4)oc3C)cc2)cc1 | < 5% | 0.26 µM | 2.05 µM | 0.099 µM | %max [5]: 93%; Intrinsic activity [6]: 78%
20 | COc1ccc(OC(=O)N(CC(=O)O)Cc2ccc(OCCc3nc(-c4ccc(O)cc4)oc3CO)cc2)cc1 | < 5% | – | – | – | –
